Results taken from patent US10323035B2, “Co-crystal of a CDK inhibitor and an MEK inhibitor and process of preparation thereof” (CRYSTAL PHARMATECH CO., LTD, priority 2015, dated 2019).

Test: Pharmacokinetics in rats after oral administration
Format: in vivo
Conditions: male, SD, blood
Experimental: Investigations on the pharmacokinetic characteristics of MEK162 free base single compound (group A), equimolar physical mixture of MEK162 and LEE011 succinate (group B) and co-crystal Form I of MEK162-LEE011 (group C) in the rats were conducted. Male SD rats with standard weight were chosen as experimental objects, three rats in a group and were orally administrated. The dosage in group A was 5 mg·kg^−1 (calculated as free base), the dosages of two components in group B were both 5 mg·kg^−1 (calculated as free base), the dosage in group C was 10 mg·kg^−1 (calculated as co-crystal anhydrate form), and dosage of these two components was around 5 mg·kg^−1 (calculated as free base) as calculated by molecular weight.

- Tmax (5 mg·kg^−1, rat, read-out: time to reach maximum concentration (Tmax)): 15 min
- AUC(0-inf) (rat, about 5 mg·kg^−1 of each component as free base, read-out: AUC0-inf of MEK162): 11300 ± 895 ng·h/mL
- Cmax (rat, about 5 mg·kg^−1 of each component as free base, read-out: maximum concentration of blood drug (Cmax) of MEK162): 3240 ± 576 ng/mL
Structure (SMILES): Cn1cnc2c(F)c(Nc3ccc(Br)cc3F)c(C(=O)NOCCO)cc21 [MEK162, 5-[(4-bromo-2-fluorophenyl)amino]-4-fluoro-N-(2-hydroxyethoxy)-1-methyl-1H-benzimidazol-6-carboxamide]
